We go through one compound from patent publication US12201608B2, “Methods for treating Parkinson's disease by administering resiniferatoxin” (Sorrento Therapeutics, Inc., priority 2018, dated 2025).

SMILES strings stand for the structures. Entries after “also recorded” stand apart in the source; their conditions may differ.

The test system of assay [1] is dopamine and its metabolite levels in the striatum, AAV-A53T mouse model of PD-like pathology. The assay is described as follows: Dopamine and metabolites in ipsilateral and contralateral striatum by HPLC. In kind it is in vivo, C57Bl/6J male mice. As to conditions: for dopamine levels in striatum: vs AAV-A53T vehicle. The protocol: For this study, a total of 110 male C57Bl/6J mice two months of age were infused with either AAV-A53T (90 mice) or AAV-Null (20 mice) into substantia nigra unilaterally to induce PD-like pathology or to serve as sham controls, respectively. Mice infused with AAV-Null (empty) vector (“sham-infused” mice) were used in order to control for the effect of the viral infusion. After 7 or 14 days of AAV-A53T mediated disease model induction, the mice were treated with RTX (0.04 μg or 0.125 μg) (5 μL volume, prepared from a 25 μg/ml RTX solution containing Polysorbate 80 at 0.03% w/v, dextrose at 0.05% w/v, Phosphate Buffer at 30 mM, and NaCl 0.54% w/v, pH 7.2, and diluted in saline as needed) by single intrathecal infusion at lumbar spinal cord area. One AAV-Null and AAV-A53T infused group per each time point were treated with vehicle instead of RTX.
The mice were then treated with RTX or vehicle by intrathecal infusion 7 or 14 days after AAV infusion. The mice were assigned to treatment groups as follows: • Group 1: 10 male mice sham-infused with AAV-null, and administered vehicle at D7. • Group 2: 15 male mice infused with AAV-A53T, and administered vehicle at D7. • Group 3: 15 male mice infused with AAV-A53T, and administered 0.04 μg of RTX at D7. • Group 4: 15 male mice infused with AAV-A53T, and administered 0.125 μg of RTX at D7. • Group 5: 10 male mice sham-infused with AAV-null, and administered vehicle at D14. • Group 6: 15 male mice infused with AAV-A53T, and administered vehicle at D14. • Group 7: 15 male mice infused with AAV-A53T, and administered 0.04 μg of RTX at D14. • Group 8: 15 male mice infused with AAV-A53T, and administered 0.125 μg of RTX at D14.
Body weight of the animals was monitored two times per week. Fine motor kinematic analysis was performed 7 weeks after AAV infusion. 8 weeks post AAV infusion, the mice were euthanized and subjected to tissue sample collection. Dopamine and its metabolites were analyzed from ipsilateral and contralateral striata by high performance liquid chromatography (HPLC).
Ipsi- and contralateral striatum were collected in 1.5 mL Eppendorf tubes, snap-frozen on dry ice (i.e. left and right separately), weighed and stored at −80° C. for HPLC analysis of dopamine and its metabolites.
Dopamine (DA), 3,4-dihydroxyphenylacetic acid (DOPAC) and homovanillic acid (HVA) concentrations in mouse striatal tissue samples were determined by high performance liquid chromatography (HPLC) method with electrochemical detection. After thawing on ice, tissue samples were homogenized (1:10, w/v) in 0.1 M perchloric acid with MSE Soniprep 150 ultrasonic disintegrator (MSE Scientific Instruments, Crawley, UK). Tissue homogenates were centrifuged for 15 min at 15000 g at 4° C. Supernatants were filtered through polypropylene membrane (GHP Acrodisc 13 0.45 μm, Pall Corporation, Ann Arbor, MI, USA) and diluted (1:1) with 0.1 M perchloric acid. The samples were transferred into plastic vials and analyzed immediately.
The ESA HPLC system (ESA Inc., Chelmsford, MA, USA) consists of a 582 solvent delivery system, a DG-1210 vacuum degasser, an 542 autosampler, a 880 thermostatted chamber, an eight-channel CoulArray® 5600 electrochemical array detector equipped with a two-channel 5014B microdialysis cell and a CoulArray® for Windows data acquisition module (version 1.00). The applied potentials are −175 mV (channel 1), +225 mV (channel 2), +350 mV (channel 3) and +450 mV (channel 4). DA and DOPAC are detected on channel 2 and HVA on channel 3. Injection volume is 10 μl.
The analytes were separated on a Zorbax SB-Aq reversed-phase column (2.1×100 mm, 3.5 μm, Agilent Technologies Inc., Little Falls, Wilmington, DE, USA) with a Zorbax SB-Aq precolumn (2.1×12.5 mm, 5 μm) in an isocratic run. The column was maintained at 35° C. The mobile phase was 100 mM monobasic sodium phosphate containing 4.75 mM citric acid monohydrate, 7 mM 1-octanesulfonic acid and 50 μM disodium EDTA-acetonitrile mixture (98:2, v/v). […]

Assay [2] relates to AAV-A53T mouse model of Parkinson's Disease-like (PD) pathology. The assay is described as follows: Fine motor gait analysis accounting for left-right asymmetry (D7 data reevaluated). In kind it is in vivo, C57Bl/6J male mice. As to conditions: for maximum left-right difference of hip angle: vs AAV-A53T Vehicle. The procedure: D7 fine motor gait analysis data from the study described above was reevaluated to determine how left-right asymmetry is manifested on kinematic parameters instead of assessing changes which occur bilaterally and that are captured in the “normal” overall gait score.
Typically, both the left and right sides of an animal are assessed for test parameters and the overall score and discriminant vector is based on the average of both the left and right-side values for a particular parameter. For example, the maximum hip angle is determined by the average of the left and right-side angle and it is similar in both AAV-Null Vehicle and AAV-A53T Vehicle groups. However, as shown in FIGS. 8A-8C when the left and right side measurements of the maximum hip angle were analyzed separately, the hip angle max of AAV-A53T Vehicle treated mice is smaller on the left side (FIG. 8A) than on the right side (FIG. 8B) when compared to AAV-Null mice.
Fine motor gait analysis was performed by creating a discriminant vector using the transformed data set, where left-right difference is used instead of the average of left and right.

The mark [3] stands for this setting: high dose, 7 days after AAV-A53T infusion, statistically non-significant (one-way ANOVA).
The mark [4] stands for this setting: both RTX groups, vs AAV-A53T Vehicle D7.

On to `C=C(C)[C@]12C[C@@H](C)[C@@]34O[C@](Cc5ccccc5)(O[C@@H]1[C@@H]3C=C(COC(=O)Cc1ccc(O)c(OC)c1)C[C@]1(O)C(=O)C(C)=C[C@@H]41)O2` [RTX, Resiniferatoxin], for which the “dopamine and its metabolites levels, treatment effect” value in assay [1] (AAV-A53T vehicle groups vs corresponding RTX groups, striata 8 weeks after model induction) was “no significant effects of RTX treatment; also recorded: no significant treatment effect”. Moreover, in assay [1] (both doses, 7 and 14 days after AAV-A53T infusion, statistically non-significant (Kruskal-Wallis test)), the “dopamine turnover ((DOPAC + HVA) / dopamine)” value was “minor trend towards even higher turnover rates”. In assay [1] (groups treated at day 14), the “DOPAC levels in striatum” value was “non-significant trend of lower DOPAC levels”, the “HVA levels in striatum” value was “non-significant trend of lower HVA levels” and the “dopamine levels in striatum” value is “non-significant trend of lower dopamine levels”. In assay [1] (setting [3]), the “DOPAC levels in striatum” value was “minor trend towards higher DOPAC levels”, the “HVA level in striatum” value is reported as “minor trend towards higher concentration” and the “dopamine levels in striatum” value is “minor trend towards higher dopamine levels”. Moreover, the “maximum left-right difference of hip angle” value in assay [2] (AAV-A53T and 0.05 μg RTX (n=14)) is “reduction in the maximum difference”. For the same compound, the “maximum left-right difference of hip angle” value in assay [2] (AAV-A53T and 0.124 μg RTX (n=14)) is listed as “reduction in the maximum difference”. Moreover, in assay [2] (setting [4]), the “hindlimb peak swing speed, left-right difference” value is on record as “reduced” and the “hindlimb swing speed, left-right difference” value was “reduced”. The “left-right gait difference Discriminant Vector Score” value in assay [2] (both RTX groups, vs AAV-A53T vehicle, p<0.05 unpaired t-test) is “significantly lower”. The “diagonal interlimb coordination, left-right difference” value in assay [2] (low and high RTX dose groups) is “less of a a diagonal interlimb coordination difference”.
